Source: US8835428B2, “Diacylglycerol acyltransferase inhibitors” (Piramal Enterprises Limited, priority 2008, dated 2014)

Each compound was assayed against T1, hDGAT1 (Homo sapiens, UniProt O75907) (assay: In-vitro DGAT1 assay (hDGAT1 microsomes from Sf9 cells, 14C oleoyl CoA, triglyceride formation)). Conditions: At 1 μM.
T1 construct: host or cells: Sf9 insect cells (baculovirus); microsomal preparation
T1 sequence (O75907 1-488): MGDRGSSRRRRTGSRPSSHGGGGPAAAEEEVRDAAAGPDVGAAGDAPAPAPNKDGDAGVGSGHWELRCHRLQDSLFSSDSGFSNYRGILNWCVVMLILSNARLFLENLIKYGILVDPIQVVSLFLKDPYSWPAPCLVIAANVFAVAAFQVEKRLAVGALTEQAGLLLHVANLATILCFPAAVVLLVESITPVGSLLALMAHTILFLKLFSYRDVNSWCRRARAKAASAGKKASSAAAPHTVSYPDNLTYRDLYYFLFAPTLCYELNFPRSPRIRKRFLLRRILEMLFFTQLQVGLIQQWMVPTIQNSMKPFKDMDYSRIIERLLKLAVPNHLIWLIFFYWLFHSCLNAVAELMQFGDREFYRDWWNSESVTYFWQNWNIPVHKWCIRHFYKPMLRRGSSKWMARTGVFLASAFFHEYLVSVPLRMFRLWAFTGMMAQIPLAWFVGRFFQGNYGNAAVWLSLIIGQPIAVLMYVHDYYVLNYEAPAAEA
Format: biochemical
Method in brief: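 Human DGAT1 in baculovirus-infected Sf9 microsomes (2.5–10 μg), [14C]oleoyl-CoA with 409.5, 1228.5 or 1638 μM 1,2-dioleoyl-sn-glycerol, Tris-HCl pH 7.4 buffer with BSA. Compounds screened at 10, 5 and 1 μM in duplicate. Reaction 10 min at 37 °C; heptane-extracted [14C]triglyceride counted by scintillation.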

inhibition at 1 µM [%]	SMILES
50 to 75	COC(=O)[C@@H](NC(=O)c1cc(-c2ccc(NC(=O)Nc3ccc(F)c(F)c3)cc2)no1)C(C)C [Example 129, (S)-methyl 2-(3-(4-(3-(3,4-difluorophenyl)ureido)phenyl)isoxazole-5-carboxamido)-3-methylbutanoate]
75 to 100	CC(C)[C@H](NC(=O)c1cc(-c2ccc(NC(=O)Nc3ccc(F)c(F)c3)cc2)no1)C(=O)O [Example 130, (S)-2-(3-(4-(3-(3,4-difluorophenyl)ureido)phenyl)isoxazole-5-carboxamido)-3-methylbutanoic acid]
50 to 75	CC(C)[C@H](NC(=O)c1cc(-c2ccc(NC(=O)Nc3ccc(F)cc3)cc2F)no1)C(=O)O [Example 146, (S)-2-(3-(2-fluoro-4-(3-(4-fluorophenyl)ureido)phenyl)isoxazole-5-carboxamido)-3-methylbutanoic acid]

Same assay, conditions: At 5 μM

inhibition at 5 µM [%]	% inhibition of hDGAT1	SMILES
0 to 50	–	COC(=O)C(NC(=O)c1cc(-c2ccc(NC(=O)Nc3ccccc3F)cc2C)no1)C(C)C (stereo not shown) [Example 135, Methyl 2-(3-(4-(3-(2-fluorophenyl)ureido)-2-methylphenyl)isoxazole-5-carboxamido)-3-methylbutanoate]
75 to 100	–	Cc1cc(NC(=O)Nc2ccccc2F)ccc1-c1cc(C(=O)NC(C(=O)O)C(C)C)on1 (stereo not shown) [Example 136, 2-(3-(4-(3-(2-Fluorophenyl)ureido)-2-methylphenyl)isoxazole-5-carboxamido)-3-methylbutanoic acid]
0 to 50	–	COC(=O)[C@@H](NC(=O)c1cc(-c2ccc(NC(=O)Nc3ccc(F)cc3F)cc2F)no1)C(C)C [Example 141, (S)-Methyl 2-(3-(4-(3-(2,4-difluorophenyl)ureido)-2-fluorophenyl)isoxazole-5-carboxamido)-3-methylbutanoate]
75 to 100	–	CC(C)[C@H](NC(=O)c1cc(-c2ccc(NC(=O)Nc3ccc(F)cc3F)cc2F)no1)C(=O)O [Example 142, (S)-2-(3-(4-(3-(2,4-difluorophenyl)ureido)-2-fluorophenyl)isoxazole-5-carboxamido)-3-methylbutanoic acid]
50 to 75	–	COC(=O)[C@@H](NC(=O)c1cc(-c2ccc(NC(=O)Nc3ccccc3F)cc2F)no1)C(C)C [Example 143, (S)-methyl 2-(3-(2-fluoro-4-(3-(2-fluorophenyl)ureido)phenyl)isoxazole-5-carboxamido)-3-methylbutanoate]
75 to 100	–	CC(C)[C@H](NC(=O)c1cc(-c2ccc(NC(=O)Nc3ccccc3F)cc2F)no1)C(=O)O [Example 144, (S)-2-(3-(2-Fluoro-4-(3-(2-fluorophenyl)ureido)phenyl)isoxazole-5-carboxamido)-3-methylbutanoic acid]
50 to 75	–	COC(=O)[C@@H](NC(=O)c1cc(-c2ccc(NC(=O)Nc3ccc(F)cc3)cc2F)no1)C(C)C [Example 145, (S)-Methyl 2-(3-(2-fluoro-4-(3-(4-fluorophenyl)ureido)phenyl)isoxazole-5-carboxamido)-3-methylbutanoate]
50 to 75	–	COC(=O)C(NC(=O)c1cc(-c2ccc(NC(=O)Nc3cccc(F)c3)cc2)no1)C(C)C (stereo not shown) [Example 151, Methyl 2-(3-(4-(3-(3-fluorophenyl)ureido)phenyl)isoxazole-5-carboxamido)-3-methylbutanoate]
75 to 100	–	CC(C)C(NC(=O)c1cc(-c2ccc(NC(=O)Nc3cccc(F)c3)cc2)no1)C(=O)O (stereo not shown) [Example 152, 2-(3-(4-(3-(3-fluorophenyl)ureido)phenyl)isoxazole-5-carboxamido)-3-methylbutanoic acid]
–	+ (>0% Inhibition ≦50)	COC(=O)C(NC(=O)c1cc(-c2ccc(NC(=O)Nc3ccccc3C)cc2)no1)C(C)C (stereo not shown) [Example 153, Methyl 3-methyl-2-(3-(4-(3-o-tolylureido)phenyl)isoxazole-5-carboxamido) butanoate]
75 to 100	–	Cc1ccccc1NC(=O)Nc1ccc(-c2cc(C(=O)NC(C(=O)O)C(C)C)on2)cc1 (stereo not shown) [Example 154, 3-methyl-2-(3-(4-(3-o-tolylureido)phenyl)isoxazole-5-carboxamido) butanoic acid]

Same assay, conditions: At 10 μM

inhibition at 10 µM [%]	% inhibition of hDGAT1	SMILES
50 to 75	–	COC(=O)C(NC(=O)c1cc(-c2ccc(NC(=O)Nc3c(F)cccc3F)cc2)no1)C(C)C (stereo not shown) [Example 123, Methyl 2-(3-(4-(3-(2,6-difluorophenyl)ureido)phenyl)isoxazole-5-carboxamido)-3-methylbutanoate]
75 to 100	–	CC(C)C(NC(=O)c1cc(-c2ccc(NC(=O)Nc3c(F)cccc3F)cc2)no1)C(=O)O (stereo not shown) [Example 124, 2-(3-(4-(3-(2,6-difluorophenyl)ureido)phenyl)isoxazole-5-carboxamido)-3-methylbutanoic acid]
50 to 75	–	COC(=O)C(NC(=O)c1cc(-c2ccc(NC(=O)Nc3ccc(C)cc3)cc2)no1)C(C)C (stereo not shown) [Example 125, Methyl 3-methyl-2-(3-(4-(3-p-tolylureido)phenyl)isoxazole-5-carboxamido)butanoate]
75 to 100	–	Cc1ccc(NC(=O)Nc2ccc(-c3cc(C(=O)NC(C(=O)O)C(C)C)on3)cc2)cc1 (stereo not shown) [Example 126, 3-Methyl-2-(3-(4-(3-p-tolylureido)phenyl)isoxazole-5-carboxamido) butanoic acid]
0 to 50	–	COC(=O)C(NC(=O)c1cc(-c2ccc(NC(=O)Nc3ccc(OC)cc3)cc2)no1)C(C)C (stereo not shown) [Example 127, Methyl 2-(3-(4-(3-(4-methoxyphenyl)ureido)phenyl)isoxazole-5-carboxamido)-3-methylbutanoate]
75 to 100	–	COc1ccc(NC(=O)Nc2ccc(-c3cc(C(=O)NC(C(=O)O)C(C)C)on3)cc2)cc1 (stereo not shown) [Example 128, 2-(3-(4-(3-(4-Methoxyphenyl)ureido)phenyl)isoxazole-5-carboxamido)-3-methylbutanoic acid]
0 to 50	–	COC(=O)C(CC(C)C)NC(=O)c1cc(-c2cc(NC(=O)Nc3ccc(F)cc3)ccc2C)no1 (stereo not shown) [Example 131, Methyl 2-(3-(5-(3-(4-fluorophenyl)ureido)-2-methylphenyl)isoxazole-5-carboxamido)-4-methylpentanoate]
0 to 50	–	Cc1ccc(NC(=O)Nc2ccc(F)cc2)cc1-c1cc(C(=O)NC(CC(C)C)C(=O)O)on1 (stereo not shown) [Example 132, 2-(3-(5-(3-(4-fluorophenyl)ureido)-2-methylphenyl)isoxazole-5-carboxamido)-4-methylpentanoic acid]
50 to 75	–	COC(=O)C(NC(=O)c1cc(-c2ccc(NC(=O)Nc3ccc(F)cc3)cc2C)no1)C(C)C (stereo not shown) [Example 133, Methyl 2-(3-(4-(3-(4-fluorophenyl)ureido)-2-methylphenyl)isoxazole-5-carboxamido)-3-methylbutanoate]
75 to 100	–	Cc1cc(NC(=O)Nc2ccc(F)cc2)ccc1-c1cc(C(=O)NC(C(=O)O)C(C)C)on1 (stereo not shown) [Example 134, 2-(3-(4-(3-(4-fluorophenyl)ureido)-2-methylphenyl)isoxazole-5-carboxamido)-3-methylbutanoic acid]
0 to 50	–	COC(=O)C(NC(=O)c1cc(-c2ccc(NC(=O)Nc3ccc(F)cc3F)cc2C)no1)C(C)C (stereo not shown) [Example 137, Methyl 2-(3-(4-(3-(2,4-difluorophenyl)ureido)-2-methylphenyl)isoxazole-5-carboxamido)-3-methylbutanoate]
75 to 100	–	Cc1cc(NC(=O)Nc2ccc(F)cc2F)ccc1-c1cc(C(=O)NC(C(=O)O)C(C)C)on1 (stereo not shown) [Example 138, 2-(3-(4-(3-(2,4-difluorophenyl)ureido)-2-methylphenyl)isoxazole-5-carboxamido)-3-methylbutanoic acid]
0 to 50	–	COC(=O)C(CC(C)C)NC(=O)c1cc(-c2ccc(NC(=O)Nc3ccc(F)cc3F)cc2C)no1 (stereo not shown) [Example 139, Methyl 2-(3-(4-(3-(2,4-difluorophenyl)ureido)-2-methylphenyl)isoxazole-5-carboxamido)-4-methylpentanoate]
75 to 100	–	Cc1cc(NC(=O)Nc2ccc(F)cc2F)ccc1-c1cc(C(=O)NC(CC(C)C)C(=O)O)on1 (stereo not shown) [Example 140, 2-(3-(4-(3-(2,4-difluorophenyl)ureido)-2-methylphenyl)isoxazole-5-carboxamido)-4-methylpentanoic acid]
50 to 75	–	COC(=O)C(NC(=O)c1cc(-c2ccc(NC(=O)Nc3ccccc3F)c(F)c2)no1)C(C)C (stereo not shown) [Example 147, Methyl 2-(3-(3-fluoro-4-(3-(2-fluorophenyl)ureido)phenyl)isoxazole-5-carboxamido)-3-methylbutanoate]
–	+++ (>75% Inhibition ≦100)	CC(C)C(NC(=O)c1cc(-c2ccc(NC(=O)Nc3ccccc3F)c(F)c2)no1)C(=O)O (stereo not shown) [Example 148, 2-(3-(3-fluoro-4-(3-(2-fluorophenyl)ureido)phenyl)isoxazole-5-carboxamide)-3-methylbutanoic acid]
75 to 100	–	CC(C)C(NC(=O)c1cc(-c2ccc(NC(=O)Nc3ccc(F)cc3F)c(F)c2)no1)C(=O)O (stereo not shown) [Example 150, 2-(3-(4-(3-(2,4-Difluorophenyl)ureido)-3-fluorophenyl)isoxazole-5-carboxamido)-3-methylbutanoic acid]
